# Test results from PubChem BioAssay (NCI).
# Several values for one entry are separate records, joined by “and”; a condition that tells them apart may be missing. Equal values may be shown once.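 Where inhibition never reached the appropriate level, the endpoint shown equals the highest concentration tested. Otherwise, values were interpolated linearly from a five-concentration, 48-hour dose response in 96-well plates. Here, GI50 denotes the concentration required for 50% inhibition of growth. TGI: concentration producing complete growth inhibition.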
# Columns and labels:
# Assay in all cases: growth of human tumour cells (NCI), 48 h
# UACC-257 melanoma = tested on: UACC-257 melanoma
# HCT-15 colon = tested on: HCT-15 colon
# HCT-116 colon = tested on: HCT-116 colon
# SK-MEL-28 melanoma = tested on: SK-MEL-28 melanoma
# CAKI-1 renal = tested on: CAKI-1 renal
# OVCAR-3 ovarian = tested on: OVCAR-3 ovarian
# SF-295 CNS = tested on: SF-295 CNS
# OVCAR-4 ovarian = tested on: OVCAR-4 ovarian
# HCC-2998 colon = tested on: HCC-2998 colon
# CCRF-CEM leukemia = tested on: CCRF-CEM leukemia
Structure (SMILES),GI50 (UACC-257 melanoma) [µM],TGI (UACC-257 melanoma),GI50 (HCT-15 colon) [µM],TGI (HCT-15 colon),GI50 (HCT-116 colon) [µM],TGI (HCT-116 colon),GI50 (SK-MEL-28 melanoma) [µM],TGI (SK-MEL-28 melanoma),GI50 (CAKI-1 renal) [µM],TGI (CAKI-1 renal),GI50 (OVCAR-3 ovarian) [µM],TGI (OVCAR-3 ovarian),GI50 (SF-295 CNS) [µM],TGI (SF-295 CNS),GI50 (OVCAR-4 ovarian) [µM],TGI (OVCAR-4 ovarian),GI50 (HCC-2998 colon) [µM],TGI (HCC-2998 colon),GI50 (CCRF-CEM leukemia),TGI (CCRF-CEM leukemia)
C/C(=N\O)c1cccc(Nc2cc(-n3ccnn3)c3ccccc3n2)c1,12.9,27.9 µM,13.5,27.4 µM,14.1,27.1 µM,0.444,30.2 µM,21.3,70.6 µM,20.2,55.8 µM,18.5,47.8 µM,0.25,27.8 µM,20.5,56.5 µM,11.7 µM,31.3 µM
COc1ccc(N2Cc3cnc(Nc4ccccc4)nc3N([C@@H]3CC[C@@H](O)C3)C2=O)cc1,7.36,> 25 µM,1.66,> 25 µM,2.84,> 25 µM,8.19,> 25 µM,1.36,> 9.74 µM,10.9,> 25 µM,17.6,> 25 µM,2.43,> 25 µM,18.8,> 25 µM,5.98 µM,> 25 µM
CCCC(=O)Nc1cc(C(=O)N2C[C@@H]3C[C@]34C2=CC(=O)c2[nH]cc(C)c24)n(COC)c1,3.03,32.4 µM and 6.62 µM,13.9,50 µM and 33.3 µM,2.69,50 µM and 11.8 µM,3.08,34.2 µM and 10.7 µM,4.25,13 µM and 17.3 µM,2.58,24.4 µM and 5.09 µM,5.4,50 µM and 20.4 µM,,20.3 µM and 19.9 µM,2.88,9.71 µM and 10.2 µM,0.495 µM,
CSC(CC(=O)O)C(=O)O (centres undefined),,> 100 µM,,> 100 µM,,> 100 µM,,> 100 µM,,> 100 µM,,> 100 µM,,> 100 µM,,> 100 µM,,> 100 µM,,> 100 µM
O=C(O)COc1ccc(O)c2c1C(=O)CCCC2=O,,> 100 µM,,> 100 µM,,> 100 µM,,> 100 µM,,> 100 µM,,> 100 µM,,> 100 µM,,> 100 µM,,> 100 µM,,> 100 µM
COc1ccccc1N=C(N)N/N=C/c1c[nH]c2ccccc12,,11.7 µM,,15.7 µM,,19.6 µM,,16.3 µM,,26.7 µM,,25.7 µM,,21.3 µM,,31.3 µM,,6.27 µM,,31.2 µM
CCc1cccc(C(C)C)c1NC(=O)C(=O)CC(=O)c1c(C)n([O-])c2ccccc2[n+]1=O,,,,> 100 µM,,> 100 µM,,> 100 µM,,> 100 µM,,,,,,> 100 µM,,> 100 µM,,> 100 µM
CCO/C=C/C(C)C1(C(=O)OCC)CCCCC1=O (centres undefined),,> 100 µM,,> 100 µM,,> 100 µM,,> 100 µM,,> 100 µM,,> 100 µM,,> 100 µM,,> 100 µM,,> 100 µM,,> 100 µM
FC(F)(F)c1cc(-c2nnc3n2N=C(N2CCCC2)CS3)cc(C(F)(F)F)c1,> 50,> 50 µM,> 50,> 50 µM,7.99,> 50 µM,> 50,> 50 µM,> 50,> 50 µM,5.27,28.8 µM,19.2,> 50 µM,> 50,> 50 µM,> 50,> 50 µM,> 50 µM,> 50 µM
COc1ccc(-c2cc(=O)c3c(C)cc(C)nc3[nH]2)cc1,,85.3 µM,,> 100 µM,36.5,> 100 µM,,> 100 µM,,82.9 µM,32.7,> 100 µM,42.5,> 100 µM,,> 100 µM,,> 100 µM,,43.2 µM
COc1cc2c(c(OC)c1OC)-c1ccc(N)c(=O)cc1[C@@H](NC(C)=O)CC2,> 100,> 100 µM,0.358,> 100 µM,0.0168,> 100 µM,> 100,> 100 µM,1.42,> 47.2 µM,< 0.012,0.0362 µM,0.0339,,0.0542,> 100 µM,0.0279,,< 0.0147 µM,> 100 µM
CCCCS(=O)CCC(N)C(=O)O (centres undefined),,> 100 µM,,> 100 µM,,> 100 µM,,> 100 µM,,> 100 µM,,> 100 µM,,> 100 µM,,> 100 µM,,> 100 µM,,> 100 µM
COc1ccc(-c2nc3sc(-c4ccc(Cl)cc4)cn3n2)cc1,> 50,> 50 µM,24.5,> 50 µM,1.21,3.48 µM,> 50,> 50 µM,1.79,8.92 µM,1.72,7.2 µM,2.81,31.8 µM,0.766,1.63 µM,> 50,> 50 µM,> 50 µM,> 50 µM
CCn1c(C(=O)N(C2CC2)C2CC2)cc2c3c(ncn3C)c(Nc3cc(C)n(C)n3)nc21,> 100,> 100 µM,> 100,> 100 µM,> 100,> 100 µM,> 100,> 100 µM,16.8,> 100 µM,> 100,> 100 µM,> 100,> 100 µM,> 100,> 100 µM,> 100,> 100 µM,> 100 µM,> 100 µM
COc1cc(/C=C\c2ccccc2)cc(OC)c1OC,,41.3 µM,,36 µM,,> 100 µM,,> 100 µM,,> 100 µM,,5.58 µM,,7.21 µM,,> 61 µM,,48.5 µM,,49.8 µM
COc1ccccc1/C=C/[N+](=O)[O-],1.84,4.32 µM,2.32,6.98 µM,1.51,2.9 µM,1.62,3.66 µM,2.95,46.6 µM,2.23,4.67 µM,4.67,20.5 µM,3.56,37.7 µM,1.76,3.24 µM,2.16 µM,6.47 µM

Structure (SMILES),GI50 (UACC-257 melanoma) [µM],TGI (UACC-257 melanoma),GI50 (HCT-15 colon) [µM],TGI (HCT-15 colon),GI50 (HCT-116 colon) [µM],TGI (HCT-116 colon),GI50 (SK-MEL-28 melanoma) [µM],TGI (SK-MEL-28 melanoma),GI50 (CAKI-1 renal) [µM],TGI (CAKI-1 renal),GI50 (OVCAR-3 ovarian) [µM],TGI (OVCAR-3 ovarian),GI50 (SF-295 CNS) [µM],TGI (SF-295 CNS),GI50 (OVCAR-4 ovarian) [µM],TGI (OVCAR-4 ovarian),GI50 (HCC-2998 colon) [µM],TGI (HCC-2998 colon),GI50 (CCRF-CEM leukemia),TGI (CCRF-CEM leukemia)
CCCNCCCC(NC(C)=O)C(=O)NCc1ccccc1 (centres undefined),,> 100 µM,,> 100 µM,,> 100 µM,,> 100 µM,,> 100 µM,,> 100 µM,,> 100 µM,,> 100 µM,,> 100 µM,,> 100 µM
CCCc1c(CC)c(=N)c2ccccc2n1C,47.3,> 100 µM,> 100,> 100 µM,> 100,> 100 µM,69.2,> 100 µM,> 100,> 100 µM,59.9,> 100 µM,57,> 100 µM,20.1,> 100 µM,> 100,> 100 µM,> 100 µM,> 100 µM
CCCCCCCCCCCCCCN,,> 100 µM,,> 100 µM,,> 100 µM,,> 100 µM,,> 100 µM,,> 100 µM,,> 100 µM,,> 100 µM,,> 100 µM,,> 100 µM
C[C@H](NC(=O)[C@@H]1CSSC[C@@H](NC(=O)c2nc3ccccc3cc2O)C(=O)NCC(=O)N1C)c1ccccc1,7.63,24.6 µM,2.55,9.62 µM,1.63,5.15 µM,0.906,9.83 µM,7.24,18.5 µM,0.584,1.35 µM,7.44,16.3 µM,7.95,18.3 µM,7.48,17.1 µM,1.89 µM,10.5 µM
O=C(c1ccc2ccccc2c1)c1c(C(F)(F)F)n([O-])c2cc(F)c(F)cc2[n+]1=O,2.53,6.45 µM,1.76,4.37 µM,1.5,3.02 µM,4.22,12.7 µM,1.82,3.97 µM,1.46,2.98 µM,2.02,4.9 µM,13,27.2 µM,2.42,7.65 µM,1.33 µM,3.63 µM
COc1ccc(Nc2ncc(Br)c(NCCCNC(=O)C3CCC3)n2)cc1,68.9,> 100 µM,14.7,62.5 µM,8.31,82.3 µM,33.4,> 100 µM,5.21,31.6 µM,16.5,48.5 µM,11,89.4 µM,11.3,56 µM,21.7,58.1 µM,4.49 µM,98.1 µM
Clc1ccc(Cc2nc3ccccc3s2)c(Cl)c1,,34.8 µM,,36.5 µM,,,,33.1 µM,,31.2 µM,,33 µM,,31.8 µM,,27 µM,,33.4 µM,,22.7 µM
CC(C)C1(O)C(c2ccccc2)=C(c2ccccc2)C(c2ccccc2)=C1c1ccccc1,,26.2 µM,,46.8 µM,,13.4 µM,,,,> 100 µM,,27.8 µM,,30.2 µM,,> 100 µM,,30.4 µM,,> 100 µM
Oc1cc(O)c(Oc2cccc(O)c2O)c(O)c1,,> 100 µM,,> 100 µM,,,,> 100 µM,,> 100 µM,,> 100 µM,,> 100 µM,,31.6 µM,,> 100 µM,,> 100 µM
COC1=CC(=O)C2C(C1=O)[C@@H]1c3ccccc3C[C@H]21 (some centres undefined),,> 100 µM,,> 100 µM,,,,> 100 µM,,> 100 µM,,> 100 µM,,> 100 µM,,> 100 µM,,> 100 µM,,> 100 µM
O=C(c1ccccc1)C1CCCCN1C(=O)c1ccccc1 (centres undefined),,> 100 µM,,> 100 µM,,> 100 µM,,> 100 µM,,> 100 µM,,> 100 µM,,,,> 100 µM,,> 100 µM,,> 100 µM
CC[C@@]1(O)C[C@H](OC2CC(N(C)C)C(OC3CC(O)C(OC4CCC(=O)C(C)O4)C(C)O3)C(C)O2)c2c(cc3c(c2O)C(=O)c2c(O)cccc2C3=O)[C@H]1C(=O)OC (some centres undefined),,0.179 µM and 0.26 µM,,0.436 µM and 0.826 µM,,,,0.142 µM and 0.453 µM,,0.179 µM and 0.373 µM,,0.6 µM and 0.169 µM,,0.224 µM and 0.92 µM,,0.221 µM and 0.196 µM,,0.0746 µM and 0.351 µM,0.00779 µM and 0.0022 µM,0.7 µM and 2.69 µM
O=C(/C=C/C12c3ccccc3C(c3ccccc31)C1C(=O)N(c3ccccc3)C(=O)C12)c1ccccc1 (centres undefined),2.3,39.2 µM,1.6,10.6 µM,0.695,2.07 µM,2.48,7.09 µM,1.5,> 100 µM,2.22,7.09 µM,,,2.94,> 100 µM,1.75,3.62 µM,1.45 µM,> 100 µM
C1C[OH+]CC[OH+]CCNCC[OH+]CC[OH+]CCN1.[Cl-].[Pt+4],> 100,> 100 µM,,,> 100,> 100 µM,> 100,> 100 µM,> 100,> 100 µM,> 100,> 100 µM,> 100,> 100 µM,> 100,> 100 µM,> 100,> 100 µM,30.1 µM,> 100 µM
O=Nc1c(-c2c(O)[nH]c3ccc([N+](=O)[O-])cc23)[nH]c2ccc(O)cc12,0.647,> 83.9 µM,0.376,> 100 µM,,,0.435,> 100 µM,0.332,> 100 µM,0.367,3.04 µM,0.62,> 100 µM,0.43,> 100 µM,0.836,> 100 µM,0.11 µM,12.2 µM
COC(=O)C(C(=O)C(=O)Nc1ccc(C(F)(F)F)cc1[N+](=O)[O-])c1csc(-n2nc(-c3ccccc3)cc2-c2ccccc2)n1 (centres undefined),,> 100 µM,,> 100 µM,,> 100 µM,,,,> 100 µM,,> 100 µM,,> 100 µM,,> 100 µM,,> 100 µM,,> 100 µM
